The record followed here is the NIST ThermoML archive (doi:10.1021/je400722h).

For data set [1] the following is noted: 101 kPa, Liquid; for speed of sound: Pulse-echo method; for mass density: Vibrating tube method.
A short description of data set [2]: xn = mol fraction of the nth substance listed. As to conditions: 101 kPa, Liquid, x2 = 0; for speed of sound: Pulse-echo method; for mass density: Vibrating tube method.

Numbers after ± are expanded uncertainties.

For the molecule `C1COCO1` [1,3-dioxolane], the speed of sound – broadly, the propagation velocity of pressure waves in the medium – in data set [1] (298.15 K) is 1338.7 ± 1.1 m/s; in data set [1] (303.15 K), 1316.8 ± 1 m/s; in data set [1] (308.15 K) it was 1294.7 ± 1 m/s. Further, the mass density (commonly mass per unit of volume) in data set [1] (298.15 K) amounted to 1058.9 ± 1 kg/m3; in data set [1] (303.15 K), 1052.6 ± 1 kg/m3; in data set [1] (308.15 K), 1046.3 ± 1 kg/m3.
On to `C1COCO1` [1,3-dioxolane] + Cc1ccccc1Cl, for which the speed of sound is 1338.7 ± 1.1 m/s in data set [2] (298.15 K), 1316.8 ± 1 m/s in data set [2] (303.15 K) and 1294.7 ± 1 m/s in data set [2] (308.15 K). Besides, the mass density in data set [2] (298.15 K) is recorded as 1058.9 ± 1 kg/m3; in data set [2] (303.15 K), 1052.6 ± 1 kg/m3; in data set [2] (308.15 K) it was 1046.3 ± 1 kg/m3.
In the case of `C1COCCO1` [1,4-dioxane], the results for the speed of sound in data set [1] (298.15 K), in data set [1] (303.15 K) and in data set [1] (308.15 K) were 1346 ± 1.1 m/s, 1324.4 ± 1.1 m/s and 1302.5 ± 1.1 m/s, respectively. In addition, the values for the mass density in data set [1] (298.15 K), in data set [1] (303.15 K) and in data set [1] (308.15 K) were 1027.9 ± 1 kg/m3, 1022.3 ± 1 kg/m3 and 1016.6 ± 1 kg/m3, respectively.
Turning to `C1COCCO1` [1,4-dioxane] + Cc1ccccc1Cl, the speed of sound in data set [2] (298.15 K) was determined as 1346 ± 1.1 m/s; in data set [2] (303.15 K) it was 1324.4 ± 1.1 m/s; in data set [2] (308.15 K), 1302.5 ± 1.1 m/s. In addition, the mass density in data set [2] (298.15 K) was 1027.9 ± 1 kg/m3; in data set [2] (303.15 K), 1022.3 ± 1 kg/m3; in data set [2] (308.15 K), 1016.6 ± 1 kg/m3.
Take `Cc1ccccc1Cl` [2-chlorotoluene]: the figures for the speed of sound in data set [1] (298.15 K), in data set [1] (303.15 K) and in data set [1] (308.15 K) were 1298.7 ± 1.2 m/s, 1280.7 ± 1.2 m/s and 1262.7 ± 1.2 m/s, respectively. Besides, the mass density in data set [1] (298.15 K) is recorded as 1077.3 ± 1 kg/m3; in data set [1] (303.15 K), 1072.5 ± 1 kg/m3; in data set [1] (308.15 K), 1067.6 ± 1 kg/m3.
As to `C1CCOCC1` [tetrahydropyran], the results for the speed of sound in data set [1] (298.15 K), in data set [1] (303.15 K) and in data set [1] (308.15 K) were 1269.8 ± 1 m/s, 1246.8 ± 1 m/s and 1224.4 ± 1 m/s, respectively. Further, the mass density turned out to be 879.13 ± 1 kg/m3 in data set [1] (298.15 K), 873.99 ± 1 kg/m3 in data set [1] (303.15 K) and 868.83 ± 1 kg/m3 in data set [1] (308.15 K).
In the case of `C1CCOCC1` [tetrahydropyran] + Cc1ccccc1Cl, the figures for the speed of sound in data set [2] (298.15 K), in data set [2] (303.15 K) and in data set [2] (308.15 K) were 1269.8 ± 1 m/s, 1246.8 ± 1 m/s and 1224.4 ± 1 m/s, respectively. For the same molecule, the mass density in data set [2] (298.15 K) was determined as 879.13 ± 1 kg/m3; in data set [2] (303.15 K), 873.99 ± 1 kg/m3; in data set [2] (308.15 K), 868.83 ± 1 kg/m3.
